Patent US20240238268A1, “TREATMENTS AND METHODS FOR TREATING ALZHEIMER'S DISEASE” (Board of Supervisors of Louisiana State University and …, priority 2021, published 2024)

Columns and labels:
eNOS = eNOS protein level in brain, capillary-phoresis; assay type: in vivo, mouse; settings: treated 3xTg-AD mice; control = 100%
Text: Capillary-phoresis immunoassay via ProteinSimple®: Quantification of all protein targets was achieved using Simple Western analysis in a Jess™ apparatus per the manufacturer's protocol (ProteinSimple, Bio-techne, Minneapolis, MN). Protein was extracted from dissected tissue in an extraction buffer consisting of T-PER® Tissue Protein Extraction Reagent (Cat. No. 78510, Thermo Fischer Scientific, Waltham, MA) and Halt™ Protease Inhibitor Cocktail (Cat. No. 87785, Thermo Fischer Scientific, Waltham, MA). Following homogenization and centrifugation (10,000×g, 5 min, 4° C.), protein concentration was determined in tissue protein supernatant samples using DC Protein Assay (Cat. No. 5000112, Bio-Rad Laboratories, Hercules, California) according to manufacturer instructions. […] Antibody diluent (ProteinSimple, Bio-techne, Minneapolis, MN) was used for all antibody dilutions as follows: PRMT4 (1:50, RRID: AB_2068436), PRMT6 (1:100, Cell Signaling Technology cat. 14641), eNOS (1:200, RRID: AB_10850618), nNOS (1:100, RRID: AB_2152488), iNOS (1:100, RRID: AB_10000625), DDAH2 (1:50, RRID: AB_2640442) Antibodies were detected using HRP-conjugated secondary anti-rabbit, and -mouse. Relative protein levels were calculated by measuring the area under the peak of a chemiluminescent chromatogram and normalized to total capillary chemiluminescence for a given sample. […]

[1] = test system: methylation of H3 (1-25) and MED12; settings: in cell; cited from earlier work
NO3+NO2 = experiment: Nitrate/Nitrite colorimetric assay (Griess reaction) of whole brain; assay type: in vivo, mouse; settings: 3xTg-AD mice; 30 mg/kg, IP, 7 days
Description: Nitrate/Nitrite colorimetric assay: Following euthanasia, whole brains were dissected from mice. Cold (4 °C) phosphate-buffered saline (PBS) and glass tissue grinders were used to homogenize the whole brain. Homogenates were centrifuged at 10,000×g for 20 min at 4° C. The supernatant was collected and filtered using 10 kDa ultrafilter (Cat. No. […]010, Millipore, Burlington, VA). Nitrate and nitrite were quantified per manufacturer's instructions (Cat. No. 780001, Cayman Chemical, Ann Arbor, MI). In summary, 80 μL of supernatant was loaded into a 96-well plate with 10 μL enzyme cofactor, and 10 μL nitrate reductase. Following 3 hrs of incubation, 100 μL Griess reagent was added, and plate was incubated for 30 min. The standard curve was provided by the manufacturer, and all sample concentrations were determined from the standard curve values. Changes in absorbance were measured at 550 nm. Final nitrate/nitrite levels were expressed in μM concentration.

aged 3xTg-AD female mice = experiment: BBB leakage: 40 kDa FITC-dextran in perivascular space; assay type: in vivo, mouse; settings: 30 min after FITC-dextran
Text: FIGS. 14A-14C show BBB leakage is reduced with specific PRMT4 inhibitor (TP-064) or AAV knockdown of PRMT4 in aged 3xTg-AD female mice. Aged female 3xTg-AD mice had higher levels of 40 kDa FITC-dextran in the perivascular space v. C57 controls. This was reduced with administration of PRMT inhibitor (TP-064) or AAV knockdown of PRMT4. […] FIG. 14B is a schematic representation of one of the disclosed experimental paradigms. […] C57, #p<0.05 v. 3xTg-AD female, evaluated by one-way ANOVA with Tukey's post-hoc analysis.

C57 mice = experiment: Neurovascular coupling: microvessel diameter, two-photon laser scanning microscopy, C57 mice; assay type: in vivo, mouse; settings: decreased PRMT4 via TP-064/PRMT4-AAV

## CNCCN1CCC(c2cc(CN(C)C(=O)c3cccc(Oc4ccccc4)c3)ccn2)CC1 [TP-064, N-Methyl-N-((2-(1-(2-(methylamino)ethyl)piperidin-4-yl)pyridin-4-yl)methyl)-3-phenoxybenzamide]
eNOS
  eNOS level in cortical lysates: 94.0%±25.6
  eNOS level in hippocampal lysates: 69.5%±2.71
[1]
  methylation of H3 (1-25) and MED12: inhibits
NO3+NO2
  total NO3+NO2 in whole-brain lysate: 3.90 ± 0.667 µM
Aged 3xTg-AD female mice
  40 kDa FITC-dextran in the perivascular space (BBB leakage): reduced
C57 mice
  vascular diameters: did not affect
